Each block holds one compound with its values, some of them ahead of it.
Tests used:
[1] = Experimental: The ^31P NMR chemical shift was monitored as a function of the pH. A five-parameter sigmoid function was fitted to the data using Sigma Plot 2000 (SPSS, Inc.): δ=δ0+a/[1+e^−((pH-pH0)/b)]^c The inflection point, which is determined by the second derivative of the fitted sigmoid function, is the pKa value.
The acid-base character of BPi was studied by ^31P NMR—monitored pH-titration, as described in Experimental, (v).

[2] = Stability of BPi towards selected organic and inorganic reagents (31P NMR); format: physicochemical
Excerpt: The reactivity of BPi towards various organic and inorganic reagents was explored as part of the characterization of BPi's chemical nature. These reagents include: aqueous acid solution, nitrile, amide, carbodiimide, pyridine and imidazole, tosyl chloride, phosphorous oxychloride, H2, and Zn^2+ and Mg^2+ ions.
Although BH3, in complexes with a variety of sulfur/amine/oxygen compounds, is an efficient reducing agent, its reducing nature is drastically altered in Bpi. For instance, while hydrid transfer from “BH3” to water occurs readily, the BH3 moiety in BPi transfers hydride only in a highly acidic solution (pH<2). Likewise, while BH3.
A carbodiimide reagent is used for the condensations of phosphate to provide the corresponding phosphoric anhydride. […] This finding is in contrast to diethylphosphite (cyano- or methoxycarbonyl)borane analogues, which are stable to dicyclohexylecarbodiimide (DCC) (Vyakaranam et al., 2002).
The reactivity of BPi with imidazole and pyridine was studied. […] The reaction of 5′-DMT-2′-deoxy-thymidine with tetramethyl boranopyrophosphate in the presence of N-methylimidazole was reported to proceed with the partial removal of the borane group. Likewise, when pyridine was used as a solvent, partial removal of the borane group was observed (Wada et al., 2002).
The presence of divalent metal ions such as Zn^2+ and Mg^2+ in DMF and water for 48 h and 4 h, respectively, left BPi unchanged.

[3] = Stability / decomposition rate of BPi in aqueous solution at different pH, monitored by 31P NMR; format: physicochemical
Experimental: The decomposition rate was determined by measuring changes in the integration of the respective NMR signals within 96 h.
BPi is stable in neutral and basic solutions.
The borane reacts with water to liberate hydrogen gas and boric acid.

[4] = Solubility of BPi salts in water and organic solvents; format: physicochemical
[5] = comparison value quoted in the text; cited from earlier work

pKa (first inflection point) [1]: 7.12
pKa (second inflection point) [1]: 12.54
degraded to phosphorus acid (P—B bond cleavage) ([2]; excess EDC, water pH 6.5, 37° C., 4 h, 31P NMR): 72%
Compound: Ammonium Boranophosphate [Compound 2a]

stability in neutral and basic solutions ([3]; neutral and basic solutions): stable
t1/2 of degradation to phosphorus acid ([3]; pH 2, room temperature, 31P NMR): 11.5 days
rate of degradation to phosphorus acid ([3]; pH 2, room temperature, 31P NMR, R^2=1.00): 7e-07 s⁻¹
degradation observed by 31P NMR ([3]; pH 13.7, 48 h, room temperature): no degradation
behaviour under highly acidic conditions ([3]; pH<2, H2 evolved, boric acid and phosphorus acid formed): the P—B bond is cleaved
stability in acidic solution ([3]; pH>2): relatively stable
stability with imidazole ([2]; 2 or 10 equiv. imidazole in CD3OD, 96 h, 31P NMR): remained unchanged
stability with divalent metal ions ([2]; Zn^2+ and Mg^2+ in DMF and water for 48 h and 4 h, respectively): unchanged
stability in acetonitrile and dimethyl formamide ([2]; acetonitrile and dimethyl formamide solutions, no reduction of the solvent): complete stability
stability in pyridine ([2]; solution in pyridine, 113 h): negligible cleavage of the P—B bond
water solubility ([4]; in water): high water solubility
Compound: inorganic boranophosphate [BPi]

Compound: Tributylammonium Boranophosphate [Compound 2b]
solubility in organic solvents ([4]; organic solvents such as MeOH, CH3CN, DMF, CHCl3): dissolves only in organic solvents

Compound: O=[PH](O)O [phosphorus acid]
pKa, higher of the two comparison values [5]: 6.2
pKa, lower of the two comparison values (phosphoric acid: second protonation equilibrium) [5]: 1.8

From US7338669B2, “Inorganic boranophosphate salts” (Bar-Ilan University, priority 2005, dated 2008)
